Assay type in all cases: in vivo
For assay [1], the system named is obese, diabetic mice (ob/ob strain). The assay can be described thus: GBR 12909 once daily for 14 days in obese, diabetic ob/ob mice (Example 1). To be noted: 30 mg/kg once daily 14 days. On the procedure:
GBR 12909 (1-(2-[bis(4-Fluorophenyl)methoxy]ethyl)-4-(3-phenylpropyl)piperazine dihydrochloride) is a specific dopamine reuptake inhibitor. Systemic administration of GBR 12909 can increase the dopaminergic to noradrenergic neuronal activity in the central nervous system. A study was conducted to determine the effects of GBR 12909 upon blood glucose and plasma free fatty acid levels in obese, diabetic mice (ob/ob strain). The ob/ob mouse is hyperphagic, obese, insulin resistant, diabetic and dyslipidemic due to the absence of functional leptin as a result of a mutation in this gene. Starvation or calorie restriction of these mice leads to increases in plasma free fatty acid levels that can function over the long term to worsen diabetes.
Different groups of obese, diabetic female (ob/ob) mice (body weight of approximately 33 g) maintained on 12 hour daily photoperiods, housed one per cage and allowed to feed ad libitum were randomized to once daily treatment with either a specific dopamine reuptake inhibitor, GBR 12909 at a dose of 30 mg/kg body weight (n=5-7) or vehicle (control group; n=5-7) for a 14 day period. On the fifteenth day of the study and approximately 24 hours after the final treatment animals were sacrificed and blood samples were obtained for the analyses of blood glucose and plasma free fatty acid and triglyceride levels.

Assay [2] concerns obese, diabetic female ob/ob mice. The experiment in a line: GBR 12909 and clonidine, alone and combined, 14 days in ob/ob mice with mild diabetes (Example 2). The following applies: GBR 12909 about 20 mg/kg, clonidine about 0.1 mg/kg, once daily 14 days, controls 202+/−41. On the procedure:
GBR 12909 is a specific dopamine reuptake inhibitor. Its use can increase the dopaminergic to noradrenergic neuronal activity in the central nervous system. However, by combining GBR 12909 with clonidine, a noradrenergic alpha 2 receptor agonist with preferential affinity for presynaptic alpha 2 sites, it is possible to further increase the dopamine to noradrenaline neuronal activity ratio in the central nervous system. A study was conducted to determine the interactive effects of GBR 12909 and clonidine on blood glucose level in ob/ob mice.
Obese, diabetic female ob/ob mice (body weight of approximately 28 g) with mild diabetes were maintained on 14 hour daily photoperiods, housed one per cage and allowed to feed ad libitum. Different groups of these animals were randomized to once daily treatment with either a specific dopamine reuptake inhibitor, GBR 12909 at an approximate dose of 20 mg/kg body weight (n=4), or clonidine at an approximate dose of 0.1 mg/kg (n=5), these same dosages of GBR 12909 plus clonidine (n=3), or vehicle (control group; n=5-7) for a 14 day period. On the fifteenth day of the study and approximately 24 hours after the final treatment animals were sacrificed and blood samples were obtained for the analyses of blood glucose levels.

Assay [3] concerns Female mice fed a high fat diet for 20 weeks. The assay can be described thus: GBR 12909 and FA, alone and combined, 14 days in high fat diet mice (Example 9). To be noted: for body weight: 2 weeks treatment, normal weight for age matched controls=28 grams, FIG. 15; for plasma insulin levels: compared to lean controls, FIG. 12. On the procedure:
Female mice at 4 weeks of age were fed a high fat diet for 20 weeks to induce diabetes and insulin resistance and continued on such diet while treated for 14 days with either GBR 12909 (10 mg/kg), FA (15 mg/kg), GBR 12909 (10 mg/kg) plus FA (15 mg/kg), or vehicle and sacrificed after 14 days of treatment for the analyses of body fat, blood glucose, plasma insulin, and plasma nitric oxide levels. The composite of body fat store level, blood glucose and plasma insulin was reduced the greatest in the GBR/FA group and by a magnitude more than additive of the individual GBR and FA groups combined. Only the GBR/FA group normalized plasma insulin levels. […] This effect was not observed with either GBR or FA treatments alone.

Assay [4] concerns male mice fed a high fat diet. The experiment in a line: GBR versus bupropion in high fat diet mice (Example 11). On the procedure:
The effect of increasing central dopamine neuronal activity versus increasing central dopamine plus norepinephrine neuronal activity on body fat, blood glucose, plasma insulin, and insulin sensitivity was studied in male mice fed a high fat diet from 4 weeks of age until 24 weeks of age. These mice were maintained on this high fat diet while treated with either GBR (20 mg/kg) (a selective dopamine reuptake inhibitor) or bupropion (20 mg/kg) (a dopamine and norepinpehrine reuptake inhibitor) at doses that approximate their 50% maximal effective dose for these functions in vivo in rodents.

The test system of assay [5] is high fat fed, hypertensive SHR rats. The experiment in a line: Quinelorane and fusaric acid, alone and combined, in high fat fed hypertensive SHR rats (Example 5). The following applies: SHR rats on high fat diet; for change from baseline body weight (weight loss): FA 12.5 mg/kg, FIGS. 1 and 2; for blood glucose: FIG. 6. On the procedure: Male SHR rats were maintained on 14 hour daily photoperiods and fed a high fat diet (60% of energy from fat; 5.24 kcal/gram weight) for 3 weeks and then divided into different groups and treated with either quinelorane (Q; a dopamine D2/D3 mixed receptor agonist) (0.075 mg/kg), fusaric acid (FA; a dopamine beta hydroxylase inhibitor) (12.5 mg/kg), quinelorane (0.075 mg/kg) plus FA (Q/FA) (12.5 mg/kg), or vehicle at 13 hours after light onset for 17 days. The doses of Q and FA were set at less than half maximal to effect central dopamine receptor binding functions and dopamine beta hydroxylase activity, respectively. […] Blood pressure measurements were taken at 14 days of treatment and animals were sacrificed at 18 days of treatment for analyses of body fat and humoral factors and metabolites. […] Respecting blood glucose, although both Q and FA reduced glucose level relative to vehicle, only the Q/FA regimen normalized blood glucose in these animals relative to vehicle (FIG. 6).

For assay [6], the system named is obese, diabetic female ob/ob mice. The experiment in a line: Fusaric acid and SKF 38393, alone and combined, 14 days in ob/ob mice (Example 4). The following applies: fusaric acid 15 mg/kg, SKF 38393 10 mg/kg; for retroperitoneal fat pad weight / plasma triglyceride level: 14 days; for retroperitoneal fat pad weight: control 727+/−25; for plasma triglyceride level: controls 155+/−15; for blood glucose: once daily 14 days, controls 380+/−30. On the procedure:
Fusaric acid is a dopamine beta hydroxylase inhibitor that reduces noradrenaline synthesis in noradrenergic neurons. It is not present in dopaminergic neurons and thus exerts no such effect there. SKF38393 is a post-synaptic dopamine D1 receptor agonist with no marked influence on noradrenergic neurons. A study was conducted to determine the interactive effects of fusaric acid plus SKF 38393 on body fat store levels, and blood glucose and plasma triglyceride levels in ob/ob mice. The ob/ob mouse is hyperphagic, obese, insulin resistant, diabetic and dyslipidemic due to the absence of functional leptin as a result of a mutation in this gene.
Obese, diabetic female ob/ob mice (body weight of approximately 33 g) maintained on 14 hour daily photoperiods, housed one per cage and allowed to feed ad libitum were randomized to once daily treatment with either fusaric acid (15 mg/kg; n=6-8), SKF 38393 (10 mg/kg; n=6-8), both fusaric acid (15 mg/kg) and SKF 38393 (10 mg/kg) (n=6-8), or vehicle (control group; n=6-8) for a 14 day period. On the fifteenth day of the study and approximately 24 hours after the final treatment animals were sacrificed and blood samples were obtained for the analyses of blood glucose, plasma free fatty acid and triglyceride levels. Relative to controls, fusaric acid raised blood glucose from 380+/−30 mg/dl to 430+/−30 mg/dl and SKF 38393 reduced blood glucose to 290+/−55 mg/dl. However, fusaric acid plus SKF 38393 reduced blood glucose to 180+/−20 mg/dl. […] Neither fusaric acid nor SKF 38393 had any effect on retroperitoneal fat pad weight (735+/−43 mg and 735+/−50 mg, respectively versus control value of 727+/−25 mg) however, the combination of fusaric acid plus SKF 38393 reduced retroperitoneal fat pad weight to 680+/−25 mg.

Assay [7] shares this test system. The assay can be described thus: Amphetamine with or without bromocriptine, 14 days in ob/ob mice (Example 3). To be noted: amphetamine 3 mg/kg. The text has this:
Amphetamine is a selective presynaptic dopamine release enhancer. It also acts as a presynaptic noradrenergic release enhancer but at higher dosages that will counter the effect of the dopamine reuptake inhibition activity to improve metabolism. However, addition of a dopamine D2 receptor agonist will act to reduce any amphetamine-induced increase in synaptic noradrenaline level and therefore should produce a more pronounced desired effect on metabolic disease than amphetamine or the D2 receptor agonist alone. A study was conducted to determine the effects of low dose amphetamine (3 mg/kg) with or without the dopamine D2 receptor agonist bromocriptine (5-<10 mg/kg dose) upon body weight gain, blood glucose, plasma free fatty acid and triglyceride levels in obese, diabetic mice (ob/ob strain). […] The ob/ob mouse is hyperphagic, obese, insulin resistant, diabetic and dyslipidemic due to the absence of functional leptin as a result of a mutation in this gene. Starvation or calorie restriction of these mice leads to increases in plasma free fatty acid levels that can function over the long term to worsen diabetes.
On the fifteenth day of the study and approximately 24 hours after the final treatment animals were sacrificed and blood samples were obtained for the analyses of blood glucose, plasma free fatty acid and triglyceride levels.

Assay [8] relates to Female C57 Black mice fed a high simple sugar/moderate fat diet (western diet). The experiment in a line: GBR 12909, FA, clonidine and combinations in C57 Black mice on western diet, body fat (Example 6). To be noted: GBR 25 mg/kg, FA 10 mg/kg, clonidine 0.075 mg/kg, 14 days, FIG. 7.
Assay [9] has as its system Female obese diabetic mice (ob/ob strain). The assay can be described thus: Bupropion and FA, alone and combined, 14 days in ob/ob mice (Example 7). To be noted: bupropion 40 mg/kg, FA 10 mg/kg, FIG. 9. On the procedure:
Female obese diabetic mice (ob/ob strain) at 6 weeks of age were fed standard rodent chow and different groups of animals (n=5-7/group) were treated with bupropion (40 mg/kg), FA (10 mg/kg), bupropion (40 mg/kg) plus FA (10 mg/kg), or vehicle for 14 days and then sacrificed for the analyses of blood glucose and body fat store level. […] Moreover, these reductions were more than additive in magnitude relative to the effects of the individual compounds combined.

Setting [10] is: GBR 12909 10 mg/kg, FA 15 mg/kg, 14 days.
[11] abbreviates: relative to vehicle, sacrifice at 18 days.

For `Cl.Cl.Fc1ccc(C(OCCN2CCN(CCCc3ccccc3)CC2)c2ccc(F)cc2)cc1` [GBR 12909, 1-(2-[bis(4-Fluorophenyl)methoxy]ethyl)-4-(3-phenylpropyl)piperazine dihydrochloride], the “reduction of plasma triglyceride level relative to controls” value in [1] is listed as “approximately 32%”. The blood glucose in assay [1] (about 24 h after final treatment, controls 455+/−50) was 145 ± 25 mg/dL; in assay [2] it was 221 ± 31 mg/dL; in assay [3] (GBR 12909 10 mg/kg, FA 15 mg/kg, 14 days, FIG. 11), “no significant effect”; in assay [4] (20 mg/kg, relative to vehicle and Bupropion, FIG. 18), “significantly reduced”. The compound also registered a final body weight in assay [1] (controls 42+/−2) of 28 ± 0.5 g. Besides, the “plasma free fatty acid levels” value in assay [1] (controls 780+/−40) was 450 ± 20 µM. Besides, the body weight entry in [3] is “not observed”. In addition, in [3] (setting [10]), the plasma insulin levels result is on record as “significantly higher”. For the same compound, in [4] (20 mg/kg, compared to vehicle and Bupropion, FIG. 17), the “body fat (intraabdominal fat pad)” value is listed as “significantly reduced”. For the same compound, the HOMA-IR values result in [4] (20 mg/kg, compared to vehicle and Bupropion, FIG. 19) is “significantly reduced”. In assay [4] (equal dose 20 mg/kg), the “reduction of plasma insulin compared with bupropion” value was “much more effective”.

`CCCN1CCC[C@@H]2Cc3nc(N)ncc3C[C@H]21` [Q]: in assay [5] (Q 0.075 mg/kg, 17 days), the “desensitization to the effects on weight loss” value is recorded as “exhibited desensitization” and the “change from baseline body weight (weight loss)” value is on record as “modest if any effects”. In assay [5] (relative to vehicle), the blood glucose entry is “reduced”. In addition, in assay [5] (setting [11]), the “plasma endothelin-1 (endothelin 1-21 fragment)” value is on record as “no significant effect” and the plasma nitric oxide result is listed as “no significant effect”.

Turning to `Cl.Oc1cc2c(cc1O)C(c1ccccc1)CNCC2` (centres unmarked) [SKF 38393, 1-phenyl-7,8-dihydroxy-2,3,4,5-tetrahydro-1H-3-benzazepine hydrochloride], in assay [6], the “retroperitoneal fat pad weight” value amounted to 735 ± 50 mg, the plasma triglyceride level was found to be 130 ± 7 mg/dL and the blood glucose was 290 ± 55 mg/dL.

As to `CC(N)Cc1ccccc1` (centres unmarked) [amphetamine], the “plasma free fatty acid levels” value in assay [7] (14 days, controls 900+/−100) worked out at 510 ± 30 µM. Besides, the final body weight result in assay [7] (bromocriptine 5-<10 mg/kg, 14 days, controls 44+/−1) is on record as “no effect”. For the same compound, the plasma triglyceride levels in assay [7] (bromocriptine 5-<10 mg/kg, 14 days, controls 175+/−21) came to 70 ± 7 mg/dL. In assay [7] (bromocriptine 5-<10 mg/kg, once daily 14 days, controls 422+/−46), this compound showed a blood glucose of 348 ± 22 mg/dL.

Turning to `Clc1cccc(Cl)c1NC1=NCCN1` [clonidine, 2-(2,6-dichloroanilino)-2-imidazoline], the blood glucose in [2] was 250 ± 35 mg/dL. Moreover, the “body fat store level (intraabdominal fat pad)” value in [8] is given as “no effect”.

With `CCCCc1ccc(C(=O)O)nc1` [fusaric acid, 5-butyl-2-pyridinecarboxylic acid], the “retroperitoneal fat pad weight” value in assay [6] worked out at 735 ± 43 mg. Besides, the plasma triglyceride level in [6] is 170 ± 27 mg/dL. The blood glucose in assay [6] was 430 ± 30 mg/dL; in assay [5] (relative to vehicle) it was “reduced”; in [9], “no significant effect”. The “change from baseline body weight (weight loss)” value in [5] (Q 0.075 mg/kg, 17 days) is given as “modest if any effects”. Further, the “plasma C-reactive protein (CRP) levels” value in [5] (setting [11]) was “no significant effect”. In addition, the body weight result in [3] is on record as “not observed”. In addition, the plasma insulin levels entry in [3] (setting [10]) is given as “significantly higher”.

These data come from patent US9655865B2, “Therapeutic treatment for metabolic syndrome, type 2 diabetes, obesity, or prediabetes” (VeroScience, LLC, priority 2002, dated 2017).
